Source: patent publication US20260184708A1, “PYRIDAZINONES AND METHODS OF USE THEREOF” (GFB (ABC), LLC, priority 2017, published 2026)
pIC50: −log10 of the molar value. Like-named read-outs stand apart in the source and are kept apart here.

Biological target: T1, TRPC5 (Homo sapiens, UniProt Q9UL62)
T1 construct: expressed in transfected cells; host or cells: HEK 293
T1 sequence (Q9UL62 1-973): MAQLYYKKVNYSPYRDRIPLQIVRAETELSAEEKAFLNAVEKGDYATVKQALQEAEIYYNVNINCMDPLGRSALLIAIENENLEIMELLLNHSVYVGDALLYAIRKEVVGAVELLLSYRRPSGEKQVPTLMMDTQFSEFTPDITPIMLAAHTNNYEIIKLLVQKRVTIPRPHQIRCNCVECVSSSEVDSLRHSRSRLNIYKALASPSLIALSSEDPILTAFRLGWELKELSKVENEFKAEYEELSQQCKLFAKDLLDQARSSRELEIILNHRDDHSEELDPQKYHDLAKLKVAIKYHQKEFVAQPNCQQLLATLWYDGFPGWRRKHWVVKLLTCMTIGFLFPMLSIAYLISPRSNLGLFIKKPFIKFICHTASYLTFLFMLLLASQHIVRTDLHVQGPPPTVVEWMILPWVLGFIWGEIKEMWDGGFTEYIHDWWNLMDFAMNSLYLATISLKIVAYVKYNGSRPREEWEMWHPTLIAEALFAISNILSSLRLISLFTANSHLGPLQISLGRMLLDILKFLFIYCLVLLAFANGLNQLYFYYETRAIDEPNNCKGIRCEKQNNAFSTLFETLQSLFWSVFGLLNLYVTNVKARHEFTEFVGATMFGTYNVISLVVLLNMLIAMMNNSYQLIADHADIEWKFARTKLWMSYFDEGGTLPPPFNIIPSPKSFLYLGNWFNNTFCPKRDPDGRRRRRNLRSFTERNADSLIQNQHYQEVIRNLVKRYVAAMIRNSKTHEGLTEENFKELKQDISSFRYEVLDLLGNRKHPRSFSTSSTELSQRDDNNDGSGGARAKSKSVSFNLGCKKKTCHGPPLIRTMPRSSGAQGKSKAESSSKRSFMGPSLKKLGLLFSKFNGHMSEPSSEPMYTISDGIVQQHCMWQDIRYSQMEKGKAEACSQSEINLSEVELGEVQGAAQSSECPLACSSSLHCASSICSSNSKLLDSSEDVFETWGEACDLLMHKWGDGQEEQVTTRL
Experiment: TRPC5 automated patch clamp assay (Qpatch), current block after rosiglitazone stimulation
Format: cell-based
Settings: HEK293 cells overexpressing TRPC5
Method: HEK 293 cells expressing human TRPC5 were harvested, re-suspended in serum free medium, and added to the automated platform and used within 2-3 hours. Internal and external physiological solutions were freshly prepared prior to the assay. The external solution contained: 145 mM NaCl, 4 mM KCl, 2 mM CaCl2), 1 mM MgCl2, 10 mM HEPES, 10 mM glucose, pH 7.4 with NaOH and 300 mOsm/L. The internal solution contained 120 mM L-aspartic acid, 120 mM CsOH·H2O, 20 mM CsCl, 2 mM MgCl2, 8.8 mM CaCl2), 10 mM EGTA, 10 mM HEPES, 10 mM Glucose, 0.1 mM GTP and 2 mM Na2ATP; pH 7.2 with CsOH and 290 mOsm/L. The free internal Ca2+ concentration was buffered to 1 μM.
The automated electrophysiological platform QPatch 16 from Sophion (Denmark) was used to carry out the compounds profiling. The series resistance and quality of seals were continuously monitored during the experiments. Data was analyzed using Sophion QPatch assay software 5.6 (Odense). IC50 values were calculated using a least squares regression algorithm (Hill equation).
To monitor the ion currents, a voltage ramp from −100 mV to +100 mV, over 300 ms, was applied every 10 seconds, from a holding potential of −60 mV.
After recording for a minimum of 60 seconds control period, Rosiglitazone (30 uM), was applied to activate the channel.

[1] = Table 5, rosiglitazone stimulation, 80 mV, read-out: TRPC5_QP_ XC50_80
[2] = Table 3, rosiglitazone stimulation, 80 mV, read-out: TRPC5_QP_ XC50_80
[3] = Table 3, rosiglitazone stimulation, 100 mV, read-out: TRPC5_QP_ XC50_100
[4] = Table 4, rosiglitazone stimulation, 80 mV, read-out: TRPC5_QP_ XC50_80
[5] = Table 4, rosiglitazone stimulation, 100 mV, read-out: TRPC5_QP_ XC50_100
[6] = Table 5, rosiglitazone stimulation, 100 mV, read-out: TRPC5_QP_ XC50_100
[7] = rosiglitazone stimulation, 80 mV, read-out: TRPC5_QP XC50_80
[8] = rosiglitazone stimulation, 100 mV, read-out: TRPC5_QP XC50_100

Cc1cc(F)ccc1CN1CCN(c2cc(-c3ccccc3)n[nH]c2=O)CC1
pIC50 [1]: 5.30 to 6.00

O=c1[nH]ncc(N2CCN(Cc3ccccc3OC(F)(F)F)CC2)c1Cl
pIC50 [2]: 5.30 to 6.00 | pIC50 [3]: 5.30 to 6.00

O=c1[nH]ncc(N2CCN(Cc3ccccc3C(F)(F)F)CC2)c1Cl [drawing 699]
pIC50 [4]: 5.30 to 6.00 | pIC50 [5]: 5.30 to 6.00

Cc1cc(F)ccc1CN1CCN(c2cn[nH]c(=O)c2Br)CC1
pIC50 [2]: 5.30 to 6.00 | pIC50 [3]: 5.30 to 6.00

O=c1[nH]ncc(N2CCN(Cc3ccccc3OC(F)(F)F)CC2)c1Br
pIC50 [2]: 5.30 to 6.00 | pIC50 [3]: 5.30 to 6.00

O=C1CN(c2c(Cl)cn[nH]c2=O)CCN1Cc1ccccc1OC(F)(F)F
pIC50 [1]: 3.30 to 5.00 | pIC50 [6]: 3.30 to 5.00

O=C1CN(c2cn[nH]c(=O)c2Cl)CCN1Cc1ccc(F)cc1OC(F)(F)F
pIC50 [4]: 5.30 to 6.00 | pIC50 [5]: 5.30 to 6.00

Cc1ccccc1CN1CC2(CCN(c3cn[nH]c(=O)c3Br)C2)C1
pIC50 [2]: 3.30 to 5.00 | pIC50 [3]: 3.30 to 5.00

CC(C)=Cc1c(N2CCN(Cc3ccccc3C)C(=O)C2)cn[nH]c1=O
pIC50 [4]: 3.30 to 5.00 | pIC50 [5]: 3.30 to 5.00

NC(=O)CN1CCN(c2cn[nH]c(=O)c2Br)CC1
pIC50 [7]: 3.30 to 5.00 | pIC50 [8]: 3.30 to 5.00

Cc1ccccc1CN1CC2(CCN(c3cn[nH]c(=O)c3Cl)CC2)C1
pIC50 [1]: 5.30 to 6.00 | pIC50 [6]: 5.30 to 6.00

Cc1ccc(CN2CCN(c3cn[nH]c(=O)c3Cl)CC2=O)cc1
pIC50 [1]: 5.00 to 5.30 | pIC50 [6]: 5.00 to 5.30

O=C1CN(c2cn[nH]c(=O)c2Cl)CCN1Cc1ccc(C2CC2)cc1
pIC50 [1]: 3.30 to 5.00 | pIC50 [6]: 3.30 to 5.00

Cc1ccccc1N1CCN(c2cn[nH]c(=O)c2Cl)CC1
pIC50 [1]: 5.30 to 6.00 | pIC50 [6]: 5.30 to 6.00

O=C1CN(c2cn[nH]c(=O)c2Cl)CCN1Cc1ccc(OC(F)(F)F)cc1F
pIC50 [1]: 5.00 to 5.30 | pIC50 [6]: 5.00 to 5.30

Cc1cc(F)ccc1CN1CCN(c2cc(=O)[nH]nc2-c2ccccc2)CC1
pIC50 [1]: 5.30 to 6.00 | pIC50 [6]: 5.30 to 6.00

O=C1CN(c2c(Cl)cn[nH]c2=O)CCN1Cc1cccc(C(F)(F)F)c1
pIC50 [1]: 3.30 to 5.00 | pIC50 [6]: 3.30 to 5.00

Cc1ccccc1C(=O)N1CCN(c2cn[nH]c(=O)c2Br)CC1
pIC50 [7]: 5.00 to 5.30 | pIC50 [8]: 5.00 to 5.30

Cc1cc(F)ccc1CN1CCN(c2cn[nH]c(=O)c2Br)CC1=O
pIC50 [2]: 6.00 to 11.00 | pIC50 [3]: 5.30 to 6.00

CC[C@@H]1CN(Cc2ccc(F)cc2C)CCN1c1cn[nH]c(=O)c1Cl
pIC50 [1]: 3.30 to 5.00 | pIC50 [6]: 3.30 to 5.00

Cc1ccccc1CN1CCN(c2cn[nH]c(=O)c2C2=CCOCC2)CC1=O
pIC50 [2]: 3.30 to 5.00 | pIC50 [3]: 3.30 to 5.00

CN(C)C(=O)CN1CCN(c2cn[nH]c(=O)c2Cl)CC1 [drawing 708]
pIC50 [4]: 3.30 to 5.00 | pIC50 [5]: 3.30 to 5.00

Cc1cccc(C)c1CN1CCN(c2cn[nH]c(=O)c2Br)CC1
pIC50 [7]: 5.30 to 6.00 | pIC50 [8]: 5.30 to 6.00

Cc1cc(F)ccc1CN1CCN(c2c(Cl)c(-c3ccccc3)n[nH]c2=O)CC1
pIC50 [1]: 3.30 to 5.00 | pIC50 [6]: 3.30 to 5.00

Cc1ccccc1CN1CCN(c2cn[nH]c(=O)c2Br)C(C)C1 (stereo not drawn) [drawing 650]
pIC50 [2]: 3.30 to 5.00 | pIC50 [3]: 3.30 to 5.00

CS(=O)(=O)c1ccc(CN2CCN(c3cn[nH]c(=O)c3Cl)CC2=O)cc1
pIC50 [1]: 3.30 to 5.00 | pIC50 [6]: 3.30 to 5.00

CC(C)(C)CN1CCN(c2cn[nH]c(=O)c2Br)CC1
pIC50 [2]: 3.30 to 5.00 | pIC50 [3]: 3.30 to 5.00

CC(c1ccccc1)N1CCN(c2cn[nH]c(=O)c2Br)CC1 (stereo not drawn)
pIC50 [7]: 5.30 to 6.00 | pIC50 [8]: 5.00 to 5.30

Cc1ccccc1[C@H](C)N1CCN(c2cn[nH]c(=O)c2Cl)CC1=O [drawing 743]
pIC50 [4]: 6.00 to 11.00 | pIC50 [5]: 6.00 to 11.00

O=C1CN(c2c(Br)n[nH]c(=O)c2Cl)CCN1Cc1ccccc1C(F)(F)F
pIC50 [1]: 5.30 to 6.00 | pIC50 [6]: 5.00 to 5.30

C=Cc1n[nH]c(=O)c(N2CCN(Cc3ccc(F)cc3C)CC2)c1Cl
pIC50 [1]: 3.30 to 5.00 | pIC50 [6]: 3.30 to 5.00

O=c1[nH]ncc(N2CCN(CC(F)(F)F)CC2)c1Br
pIC50 [2]: 3.30 to 5.00 | pIC50 [3]: 3.30 to 5.00

Cc1ccccc1CN1CC2(C1)CN(c1cn[nH]c(=O)c1Br)C2
pIC50 [2]: 3.30 to 5.00 | pIC50 [3]: 3.30 to 5.00

O=c1[nH]ncc(N2CCOC(Cc3ccccc3)C2)c1Cl (stereo not drawn)
pIC50 [4]: 3.30 to 5.00 | pIC50 [5]: 3.30 to 5.00

COc1n[nH]c(=O)cc1N1CCN(Cc2ccc(F)cc2C)CC1
pIC50 [4]: 3.30 to 5.00 | pIC50 [5]: 3.30 to 5.00

O=c1[nH]ncc(N2CCN(CC3CCCCC3)CC2)c1Br
pIC50 [7]: 5.30 to 6.00 | pIC50 [8]: 5.30 to 6.00

Cc1cc(N2CCN(Cc3ccc(F)cc3C)C(=O)C2)c(=O)[nH]n1
pIC50 [1]: 3.30 to 5.00 | pIC50 [6]: 3.30 to 5.00

COc1ncccc1CN1CCN(c2cn[nH]c(=O)c2Cl)CC1=O
pIC50 [1]: 5.00 to 5.30 | pIC50 [6]: 5.00 to 5.30

CCN(CC)C(=O)CN1CCN(c2cn[nH]c(=O)c2Cl)CC1=O
pIC50 [4]: 3.30 to 5.00 | pIC50 [5]: 3.30 to 5.00

Cc1ccncc1CN1CCN(c2cn[nH]c(=O)c2Cl)CC1
pIC50 [4]: 5.00 to 5.30 | pIC50 [5]: 5.00 to 5.30

O=c1[nH]ncc(N2CCN(Cc3cccc4cn[nH]c34)CC2)c1Cl
pIC50 [4]: 3.30 to 5.00 | pIC50 [5]: 3.30 to 5.00

CCN(CC)C(=O)CN1CCN(c2cn[nH]c(=O)c2Cl)[C@H](C)C1
pIC50 [4]: 3.30 to 5.00 | pIC50 [5]: 3.30 to 5.00

O=C1CN(c2cn[nH]c(=O)c2Cl)CCN1Cc1ccccc1Oc1ccccc1
pIC50 [4]: 5.00 to 5.30 | pIC50 [5]: 5.00 to 5.30

O=c1[nH]ncc(N2CCc3c(ncn3-c3cccnc3C(F)(F)F)C2)c1Cl
pIC50 (Table 6, read-out: TRPC5-QPatch IC50): 5.30 to 6.00

C=Cc1n[nH]c(=O)c(Cl)c1N1CCN(Cc2ccc(F)cc2C)CC1
pIC50 [1]: 3.30 to 5.00 | pIC50 [6]: 3.30 to 5.00

C[C@H](c1ccccc1)n1cnc2c1CCN(c1cn[nH]c(=O)c1Cl)C2 [drawing 833]
pIC50 [1]: 5.30 to 6.00 | pIC50 [6]: 5.30 to 6.00

Cc1cc(F)ccc1CN1CCN(c2c(C)n[nH]c(=O)c2Cl)CC1=O
pIC50 [1]: 3.30 to 5.00 | pIC50 [6]: 3.30 to 5.00

O=c1[nH]ncc(N2CCN(Cc3cccnc3Oc3ccccc3)CC2)c1Cl
pIC50 [1]: 5.00 to 5.30 | pIC50 [6]: 5.00 to 5.30

Cc1ccccc1CN1CCN(c2cn[nH]c(=O)c2C#CC(C)C)CC1=O
pIC50 [2]: 3.30 to 5.00 | pIC50 [3]: 3.30 to 5.00
